Data published in ChEMBL document CHEMBL1201862, “PubChem BioAssay data set” (2004).
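Assay format: 96-well plates, 48-hour exposure. GI50 is the concentration that inhibits growth by half.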 Activity calls are given as the source filed them. Rule as the data show it: active = GI50 up to about 1.1 µM and inactive = higher.

Columns and labels:
Test in all cases: NCI anticancer screen, dose series, 48 h
[1] = test system: 786-0
[2] = test system: BT-549
[3] = test system: DU-145
[4] = test system: HL-60
[5] = test system: HOP-92
[6] = test system: IGROV-1
[7] = test system: K562
[8] = test system: KM12
[9] = test system: M14
[10] = test system: MOLT-4
[11] = test system: Malme-3M
[12] = test system: NCI-H226
[13] = test system: NCI-H23
[14] = test system: OVCAR-3
[15] = test system: PC-3
[16] = test system: SW-620
[17] = test system: UO-31
[18] = test system: A498
[19] = test system: LOX IMVI
[20] = test system: MDA-MB-231

SMILES | GI50 [1] | GI50 [2] | GI50 [3] | GI50 [4] | GI50 [5] | GI50 [6] | GI50 [7] | GI50 [8] | GI50 [9] | GI50 [10] | GI50 [11] | GI50 [12] | GI50 [13] | GI50 [14] | GI50 [15] | GI50 [16] | GI50 [17] | GI50 [18] | GI50 [19] | GI50 [20]
COc1cccc(C=C(C#N)C#N)c1OC | > 100 µM (inactive) | > 100 µM (inactive) | > 100 µM (inactive) | 85.9 µM (inactive) | > 100 µM (inactive) | > 100 µM (inactive) | > 100 µM (inactive) | > 100 µM (inactive) | > 100 µM (inactive) | > 100 µM (inactive) | > 100 µM (inactive) | > 100 µM (inactive) | > 100 µM (inactive) | > 100 µM (inactive) | > 100 µM (inactive) | > 100 µM (inactive) | > 100 µM (inactive) |  |  | 
CSc1ncnc2c1ncn2CCC#N | > 100 µM (inactive) |  | > 100 µM (inactive) | > 100 µM (inactive) | > 100 µM (inactive) | > 100 µM (inactive) | > 100 µM (inactive) | > 100 µM (inactive) | > 100 µM (inactive) | > 100 µM (inactive) | > 100 µM (inactive) | > 100 µM (inactive) | > 100 µM (inactive) | > 100 µM (inactive) | > 100 µM (inactive) | > 100 µM (inactive) | > 100 µM (inactive) | > 100 µM (inactive) | > 100 µM (inactive) | > 100 µM (inactive)
C(=C\c1ccco1)/c1cccc(/C=C/c2ccco2)n1 | > 50 µM (inactive) | > 50 µM (inactive) | > 50 µM (inactive) | > 50 µM (inactive) | > 50 µM (inactive) | > 50 µM (inactive) | > 50 µM (inactive) | > 50 µM (inactive) | > 50 µM (inactive) | > 50 µM (inactive) | > 50 µM (inactive) | > 50 µM (inactive) | > 50 µM (inactive) | > 50 µM (inactive) |  | > 50 µM (inactive) | > 50 µM (inactive) | > 50 µM (inactive) | > 50 µM (inactive) | 
CCOC(=O)c1cc(-c2ccc([N+](=O)[O-])cc2)c([N+](=O)[O-])[nH]1 | 3.52 µM (inactive) | 3.4 µM (inactive) | 2.96 µM (inactive) |  | 1.22 µM (inactive) | 5.26 µM (inactive) | 3.48 µM (inactive) | 7.19 µM (inactive) | > 10 µM (inactive) | 3.77 µM (inactive) | > 10 µM (inactive) | 1.46 µM (inactive) | 2.84 µM (inactive) | 2.7 µM (inactive) |  |  | 2.42 µM (inactive) |  |  | 0.37 µM (active)
Cc1ccc(S(=O)(=O)n2c3c(c4ccccc42)CCN2C[C@H]([C@H](C)Br)CC[C@@H]32)cc1 | > 100 µM (inactive) |  | > 100 µM (inactive) | 6.46 µM (inactive) | > 100 µM (inactive) | > 100 µM (inactive) | 25.7 µM (inactive) | > 100 µM (inactive) | > 100 µM (inactive) | 67.1 µM (inactive) | > 100 µM (inactive) | > 100 µM (inactive) | > 100 µM (inactive) | > 100 µM (inactive) | > 100 µM (inactive) | > 100 µM (inactive) | > 100 µM (inactive) | > 100 µM (inactive) | > 100 µM (inactive) | > 100 µM (inactive)
OC1CCCCCCCCCCC1SCCCCl (stereo not drawn) | > 100 µM (inactive) |  | > 100 µM (inactive) | > 100 µM (inactive) | > 100 µM (inactive) | > 100 µM (inactive) | > 100 µM (inactive) | > 100 µM (inactive) | > 100 µM (inactive) | > 100 µM (inactive) | 81.8 µM (inactive) | > 100 µM (inactive) | > 100 µM (inactive) | > 100 µM (inactive) | > 100 µM (inactive) | > 100 µM (inactive) | > 100 µM (inactive) | > 100 µM (inactive) | > 100 µM (inactive) | > 100 µM (inactive)
O=C(Nc1ccccc1)OCCN=C1c2ccccc2C(Br)C(Br)c2ccccc21 (stereo not drawn) | 2.82 µM (inactive) |  | 9.16 µM (inactive) | 1.92 µM (inactive) | 8.81 µM (inactive) | 6.52 µM (inactive) | 2.8 µM (inactive) | 13.2 µM (inactive) | 4.34 µM (inactive) | 2.01 µM (inactive) | 6.15 µM (inactive) | 12.6 µM (inactive) | 10.4 µM (inactive) | 6.12 µM (inactive) | 19.3 µM (inactive) | 4.43 µM (inactive) | 2.02 µM (inactive) | 13.2 µM (inactive) | 5.08 µM (inactive) | 15.2 µM (inactive)
O=C(Nc1ccccc1)OC1OC(COC(=O)c2ccccc2)C(OC(=O)c2ccccc2)C1OS(=O)(=O)c1ccc([N+](=O)[O-])cc1 (stereo not drawn) | > 100 µM (inactive) | > 100 µM (inactive) | > 100 µM (inactive) | 86.7 µM (inactive) | > 100 µM (inactive) | > 100 µM (inactive) | > 100 µM (inactive) | > 100 µM (inactive) | > 100 µM (inactive) | > 100 µM (inactive) | > 100 µM (inactive) | > 100 µM (inactive) | > 100 µM (inactive) | 74.6 µM (inactive) | > 100 µM (inactive) | > 100 µM (inactive) | > 100 µM (inactive) | > 100 µM (inactive) | > 100 µM (inactive) | 
O/N=C1\CSc2ccccc2C1 | > 100 µM (inactive) |  | > 100 µM (inactive) | 5.33 µM (inactive) | 59.4 µM (inactive) | > 100 µM (inactive) | > 100 µM (inactive) | > 100 µM (inactive) | > 100 µM (inactive) | > 100 µM (inactive) | > 100 µM (inactive) | > 100 µM (inactive) | > 100 µM (inactive) | > 100 µM (inactive) | > 100 µM (inactive) | > 100 µM (inactive) | > 100 µM (inactive) | 51.6 µM (inactive) | > 100 µM (inactive) | > 100 µM (inactive)
COc1c(-c2nc3ccc(N4CCN(C)CC4)nc3[nH]2)cc(OC)c2[nH]c(COC(C)=O)nc12 | 22.8 µM (inactive) | 56.9 µM (inactive) | 29 µM (inactive) |  | > 100 µM (inactive) | 65.9 µM (inactive) | 1.52 µM (inactive) | 23.9 µM (inactive) | 19.5 µM (inactive) |  | 28.1 µM (inactive) |  | 32.2 µM (inactive) |  |  | 27.9 µM (inactive) | 30.7 µM (inactive) | 93.1 µM (inactive) | 25.9 µM (inactive) | 17.9 µM (inactive)
CCOC(=O)C(=Cn1c(=S)[nH]c2ccc([N+](=O)[O-])cc21)C(=O)OCC | > 100 µM (inactive) |  | > 100 µM (inactive) | > 100 µM (inactive) | > 100 µM (inactive) | > 100 µM (inactive) | > 100 µM (inactive) | > 100 µM (inactive) | > 100 µM (inactive) | > 100 µM (inactive) | > 100 µM (inactive) | 39.8 µM (inactive) | > 100 µM (inactive) | > 100 µM (inactive) | > 100 µM (inactive) | > 100 µM (inactive) | 87.9 µM (inactive) | > 100 µM (inactive) | > 100 µM (inactive) | > 100 µM (inactive)
